Measurements from DBAASP.
Values after ≈ are worked out from the molar mass of the structure shown.

Legend:
Experiment in all cases: ≥ marks a high value that may be exact or a test limit, other limits are often not marked, values filed in µg/mL are converted to µM
[1] = tested on: Acinetobacter baumannii Q12-0809
[2] = tested on: Acinetobacter baumannii Q12-0867
[3] = tested on: Acinetobacter baumannii Q13-0717
[4] = tested on: Campylobacter jejuni NCTC 11351
[5] = tested on: Campylobacter jejuni
[6] = tested on: Enterococcus faecalis JH-2-2
[7] = tested on: Escherichia coli K-12
[8] = tested on: Escherichia coli
[9] = tested on: Klebsiella pneumoniae ATCC 700603
[10] = tested on: Klebsiella pneumoniae NCTC 13442
[11] = tested on: Klebsiella pneumoniae Q14-0095
[12] = tested on: Listeria monocytogenes NCTC 11994
[13] = tested on: Pseudomonas aeruginosa ATCC 27853
[14] = tested on: Pseudomonas aeruginosa PAO1
[15] = tested on: Pseudomonas aeruginosa Q12-0581
[16] = tested on: Pseudomonas aeruginosa Q14-0208
[17] = tested on: Pseudomonas aeruginosa Q14-0890
[18] = tested on: Salmonella typhimurium SL1344
[19] = tested on: Staphylococcus aureus ATCC 29213
[20] = tested on: Staphylococcus aureus MRSA-15
[21] = tested on: Staphylococcus aureus NCTC 12493
[22] = tested on: Staphylococcus aureus Q14-0320
[23] = tested on: Staphylococcus aureus RN4220
[24] = tested on: Acinetobacter baumannii
[25] = tested on: Campylobacter jejuni ATCC 33292
[26] = tested on: Campylobacter jejuni NCTC 11161
[27] = tested on: Klebsiella pneumoniae Q14-0285
[28] = tested on: Pseudomonas aeruginosa
[29] = tested on: Staphylococcus aureus ATCC 33591
[30] = tested on: Staphylococcus aureus USA 300

Row | MIC [3] | MIC [4] | MIC [5] | MIC [6] | MIC [7] | MIC [8] | MIC [9] | MIC [10] | MIC [12] | MIC [13] | MIC [14] | MIC [16] | MIC [17] | MIC [18] | MIC [19] | MIC [20] | MIC [21] | MIC [22] | MIC [23] | SMILES | other results
1 | 26.7 µM (≈ 64 µg/mL) | ≥ 53.4 µM | ≥ 53.4 µM | ≥ 107 µM | ≥ 107 µM | > 53.4 µM | 26.7 µM (≈ 64 µg/mL) | ≥ 53.4 µM | ≥ 53.4 µM | 53.4 µM (≈ 128 µg/mL) | 214 µM (≈ 512 µg/mL) | 26.7 µM (≈ 64 µg/mL) | 13.4 µM (≈ 32 µg/mL) | ≥ 107 µM | 26.7 µM (≈ 64 µg/mL) | ≥ 104 µM | 6.68 µM (≈ 16 µg/mL) | 26.7 µM (≈ 64 µg/mL) | ≥ 107 µM | CC(C)[C@H](NC(=O)[C@@H](N)CCC(N)=O)C(=O)N[C@@H](CCCN=C(N)N)C(=O)N[C@@H](Cc1c[nH]c2ccccc12)C(=O)N[C@@H](Cc1c[nH]c2ccccc12)C(=O)NCC(=O)N[C@@H](CCCN=C(N)N)C(=O)N[C@@H](Cc1ccc(O)cc1)C(=O)N[C@@H](Cc1c[nH]c2ccccc12)C(=O)N[C@@H](CCCN=C(N)N)C(=O)N[C@@H](CCCN=C(N)N)C(=O)N[C@@H](CCCCN)C(=O)N[C@@H](Cc1c[nH]c2ccccc12)C(=O)N[C@@H](C)C(=O)N[C@H](C(=O)N[C@@H](CS)C(=O)N[C@@H](CCCN=C(N)N)C(=O)O)[C@@H](C)O [QVRWWGRYWRRKWATCR] | MIC [1]: 13.4 µM (≈ 32 µg/mL); MIC [2]: 6.68 µM (≈ 16 µg/mL); MIC [11]: ≥ 53.4 µM; MIC [15]: ≥ 53.4 µM
2 | 3.29 µM (≈ 8 µg/mL) | ≥ 52.6 µM | ≥ 52.6 µM | 13.1 µM (≈ 32 µg/mL) | 26.3 µM (≈ 64 µg/mL) | > 52.6 µM | 26.3 µM (≈ 64 µg/mL) | ≥ 52.6 µM | 13.1 µM (≈ 32 µg/mL) | > 52.6 µM | 52.6 µM (≈ 128 µg/mL) | 13.1 µM (≈ 32 µg/mL) | 26.3 µM (≈ 64 µg/mL) | 13.1 µM (≈ 32 µg/mL) | > 52.6 µM | 13.1 µM (≈ 32 µg/mL) | 26.3 µM (≈ 64 µg/mL) | ≥ 52.6 µM | 13.1 µM (≈ 32 µg/mL) | CC[C@H](C)[C@H](NC(=O)[C@H](CCCN=C(N)N)NC(=O)[C@@H](NC(=O)[C@H](CC(C)C)NC(=O)[C@H](CC(C)C)NC(=O)[C@H](CCCCN)NC(=O)[C@H](CC(N)=O)NC(=O)[C@@H](NC(=O)[C@H](CCCN=C(N)N)NC(=O)[C@H](CCCN=C(N)N)NC(=O)[C@H](CC(C)C)NC(=O)[C@@H](N)Cc1cnc[nH]1)[C@@H](C)CC)[C@@H](C)O)C(=O)NCC(=O)N[C@@H](CC(C)C)C(=O)N[C@@H](Cc1ccc(O)cc1)C(=O)N[C@@H](CCCN=C(N)N)C(=O)N[C@@H](Cc1cnc[nH]1)C(=O)N[C@@H](C)C(=O)N[C@@H](Cc1ccccc1)C(=O)NCC(=O)O [HLRRINKLLTRIGLYRHAFG] | MIC [24]: 6.57 µM (≈ 16 µg/mL); MIC [25]: 13.1 µM (≈ 32 µg/mL); MIC [26]: 13.1 µM (≈ 32 µg/mL); MIC [27]: 26.3 µM (≈ 64 µg/mL); MIC [28]: 105 µM (≈ 256 µg/mL); MIC [29]: ≥ 52.6 µM; MIC [30]: ≥ 105 µM
